Source: PMC5874726, “Comparison Study of Two Differently Clicked ^18F-Folates—Lipophilicity Plays a Key Role” (Pharmaceuticals, 2018)

Columns and labels:
[1] = LogD at pH 7.4 via shake-flask method (octanol/PBS); assay type: physicochemical; conditions: pH 7.4, shake-flask
Experimental: The lipophilicity was determined by shake flask method in an octanol/PBS mixture. Table 1 gives an overview of logD values for ^18F-Alakyne and ^18F-Ala-folate as well as for ^18F-DBCO and ^18F-DBCO-folate. […] The reduced lipophilicity is expected to be an indicator for less non-specific background signals and a higher renal clearance rate.

FR-negative OC316 cells = assay: Internalization studies in FR-negative OC316 cells; assay type: cell-based, human; conditions: blocked KB cells and FR-negative OC316 cells
Experimental: Two different temperatures (4 °C for receptor binding, 37 °C for receptor binding and internalization) and two different concentrations were assessed. […] Both radiofolates show a concentration as well as temperature depended increase of activity in the FR positive cells. […] This effect is not fully understood, but we presume the high lipophilicity in combination with the increased concentration being responsible for this high non-specific binding. […] Thus, about 90% of ^18F-DBCO-folate remained in solution, which is ideal for such a radiotracer assay set-up (see supporting information for pie chart of activity distribution, Figure S6). For ^18F-Ala-folate the overall receptor-bound and internalized fractions are similar to ^18F-DBCO-folate (see supporting information for pie chart of activity distribution, Figure S7).
As folate-receptor positive control, KB cells (derived from human cervical carcinoma; obtained from German Collection of Microorganisms and Cell Cultures), and OC316 cells (derived from human ovarian adenocarcinoma) as negative control were used. For FACS analysis, data of both cell lines see supporting information Figure S5. The cells were cultured in folate deficient RPMI 1640 medium containing 10% FCS, 1% penicillin-streptomycin and HEPES buffer (10 mM, 5 mL) grown at 37 °C in a humidified atmosphere containing 5% CO2. […]

healthy balb/c mice = assay: Ex vivo biodistribution in healthy balb/c mice; conditions: Balb/c, mouse, in vivo, 60 min
Source text: (§1) All animal experiments were approved by the local ethical committee (permission no. 23177-07/G15-1-033). Balb/c and balb/c nude (Balb/c AnNRj-Foxn1nu) mice were kept on a folate-deficient rodent diet to reduce their blood level of folate to one found in humans. After 7 days of acclimatization, human KB tumor cells (2.5 x 10^6 cells in PBS) were inoculated in the right shoulder of each balb/c nude mouse. All in vivo treatments and imaging experiments were done under isoflurane anesthesia. Eleven or twelve days after inoculation, animals were intravenously injected with ^18F-DBCO-Folate and ^18F-Ala-Folate (5–8 MBq, 100–200 µL) via a lateral tail vein. […] PET/MRI-studies were performed on a nanoScan PET/MRI (Mediso, Budapest, Hungary). First MRI scans (Material Map for co-registration of the PET scan; 3D; GRE-EXT, FOV; slice thickness: 0.6 mm; TE: 2 ms; TR: 15 ms; flip angle: 25 deg) were acquired and then either a dynamic scan over 60 min starting with injection of the radiotracer or a static scan for 10 min after 50 min p.i. were performed. All mice, which underwent ex vivo biodistribution, were scanned first. Afterwards co-registered PET/MR images were analyzed via PMOD (version 3.6) and Inveon Research Workplace (version 4.2). For ex vivo biodistribution studies mice were euthanized 60 min p.i. and organs of interest were dissected, weighed, and measured in a γ-counter (PerkinElmer 2470 Wizard2, Perkin Elmer, Rodgau, Germany). The incorporated radioactivity was expressed as percentage of injected dose per gram of tissue (% ID/g).

KB-tumor bearing mice = assay: Ex vivo biodistribution in KB-tumor bearing mice
Source text: as §1

KB tumor-bearing mice = assay: µPET imaging in KB tumor-bearing mice; assay type: in vivo, mouse; conditions: static scan 50-60 min p.i.
Source text: as §1

[2] = parameters: method as in PMID 15745749; conditions: pH 2, reversed-phase HPLC; cited from earlier work
[3] = balb/c nude (Balb/c AnNRj-Foxn1nu), mouse, in vivo, 60 min

C#CCNC(C[18F])C(=O)O (stereo not shown) [^18F-Alakyne]
logD7.4 Value [1]: −1.18 ± 0.03

Nc1nc2ncc(CNc3ccc(C(=O)NC(CCC(=O)NCCOCCOCCOCCn4cc(CNC(C[18F])C(=O)O)nn4)C(=O)O)cc3)nc2c(=O)[nH]1 (stereo not shown) [^18F-Ala-folate]
non-specific binding (FR-negative OC316 cells): lower non-specific binding | uptake Appendix (healthy balb/c mice): 0.20 ± 0.11 %ID/g tissue | uptake Blood (healthy balb/c mice): 0.29 ± 0.29 %ID/g tissue | uptake Heart (healthy balb/c mice): 0.32 ± 0.21 %ID/g tissue | uptake Inguinal lymph nodes (healthy balb/c mice): 0.93 ± 0.67 %ID/g tissue | uptake Intestines (empty) (healthy balb/c mice): 1.67 ± 1.12 %ID/g tissue | uptake Left kidney (healthy balb/c mice): 19.90 ± 8.63 %ID/g tissue | uptake Liver (healthy balb/c mice): 1.51 ± 1.26 %ID/g tissue | uptake Lung (healthy balb/c mice): 0.36 ± 0.16 %ID/g tissue | uptake Muscle (healthy balb/c mice): 0.26 ± 0.13 %ID/g tissue | uptake Pancreas (healthy balb/c mice): 0.33 ± 0.20 %ID/g tissue | uptake Right kidney (healthy balb/c mice): 20.55 ± 9.71 %ID/g tissue | uptake Spleen (healthy balb/c mice): 0.15 ± 0.09 %ID/g tissue | uptake Stomach (empty) (healthy balb/c mice): 0.71 ± 0.24 %ID/g tissue | tumor/blood ratio (KB-tumor bearing mice; 60 min p.i.): 10.11 | tumor/kidney ratio (KB-tumor bearing mice; 60 min p.i.): 0.12 | tumor/muscle ratio (KB-tumor bearing mice; 60 min p.i.): 7.64 | reduction of activity in the tumor in the blocked group (KB-tumor bearing mice; [3]): 85% | tumor uptake relative to ^18F-DBCO-folate (KB-tumor bearing mice; [3]): 3 times | uptake Appendix (KB-tumor bearing mice; [3]): 0.39 ± 0.22 %ID/g tissue | uptake Blood (KB-tumor bearing mice; [3]): 0.17 ± 0.05 %ID/g tissue | uptake Heart (KB-tumor bearing mice; [3]): 0.22 ± 0.09 %ID/g tissue | uptake Inguinal lymph nodes (KB-tumor bearing mice; [3]): 0.57 ± 0.15 %ID/g tissue | uptake Intestines (empty) (KB-tumor bearing mice; [3]): 3.42 ± 2.18 %ID/g tissue | uptake Left kidney (KB-tumor bearing mice; [3]): 14.49 ± 3.42 %ID/g tissue | uptake Liver (KB-tumor bearing mice; [3]): 1.71 ± 1.02 %ID/g tissue | uptake Lung (KB-tumor bearing mice; [3]): 0.28 ± 0.05 %ID/g tissue | uptake Muscle (KB-tumor bearing mice; [3]): 0.22 ± 0.02 %ID/g tissue | uptake Pancreas (KB-tumor bearing mice; [3]): 0.26 ± 0.11 %ID/g tissue | uptake Right kidney (KB-tumor bearing mice; [3]): 14.27 ± 3.35 %ID/g tissue | uptake Spleen (KB-tumor bearing mice; [3]): 0.16 ± 0.04 %ID/g tissue | uptake Stomach (empty) (KB-tumor bearing mice; [3]): 0.95 ± 0.50 %ID/g tissue | uptake Tumor (KB-tumor bearing mice; [3]): 1.68 ± 0.13 %ID/g tissue | tumor/liver ratio (KB-tumor bearing mice; liver including gallbladder, 60 min p.i.): 0.98 | visualization of KB tumors in maximum intensity projection (MIP) PET images (KB tumor-bearing mice): displayed the KB-tumor in the MIP

Nc1nc(=O)c2nc(CNc3ccc(C(=O)N[C@@H](CCC(=O)O)C(=O)O)cc3)cnc2[nH]1 [native folic acid, folic acid]
k′ Value [2]: 0.3 [5]
